Data set [1] is described as follows: Solubility measurements in PBS (pH 7.4), filtration, HPLC-UV. It is filed as physicochemical. As to conditions: PBS (pH 7.4) with 1% DMSO, aqueous buffer, kinetic from dmso stock, PBS pH 7.4, 100 μM test substance, room temperature. The procedure:
The solubility of each substance was assessed using MultiScreen® HTS 96-well filtration system (filter; polycarbonate, pore size; 0.4 μm, Millipore). DMSO stock solutions of each test substance (10 mM) were prepared to initiate the assay. The equilibration was performed in PBS (pH 7.4) containing 100 μM of a test substance and 1% DMSO, for 24 hours at room temperature with shaking The concentrations of test substances in each filtrate were determined by HPLC-UV.
HPLC conditions were following:
Waters ACQUITY UPLC H class instrument.
Eluent A: 10 mM aqueous Ammonium formate
Eluent B: 0.1 volume % formic acid in acetonitrile
Flow: 1 mL/min, UV: 316 nm

The target in data set [2] is T1, VEGF receptor KDR (VEGFR2) (Homo sapiens, UniProt P35968).
T1 construct: made in house; host or cells: Sf9 cells (Spodoptera frugiperda), baculovirus
T1 sequence (P35968 806-1356): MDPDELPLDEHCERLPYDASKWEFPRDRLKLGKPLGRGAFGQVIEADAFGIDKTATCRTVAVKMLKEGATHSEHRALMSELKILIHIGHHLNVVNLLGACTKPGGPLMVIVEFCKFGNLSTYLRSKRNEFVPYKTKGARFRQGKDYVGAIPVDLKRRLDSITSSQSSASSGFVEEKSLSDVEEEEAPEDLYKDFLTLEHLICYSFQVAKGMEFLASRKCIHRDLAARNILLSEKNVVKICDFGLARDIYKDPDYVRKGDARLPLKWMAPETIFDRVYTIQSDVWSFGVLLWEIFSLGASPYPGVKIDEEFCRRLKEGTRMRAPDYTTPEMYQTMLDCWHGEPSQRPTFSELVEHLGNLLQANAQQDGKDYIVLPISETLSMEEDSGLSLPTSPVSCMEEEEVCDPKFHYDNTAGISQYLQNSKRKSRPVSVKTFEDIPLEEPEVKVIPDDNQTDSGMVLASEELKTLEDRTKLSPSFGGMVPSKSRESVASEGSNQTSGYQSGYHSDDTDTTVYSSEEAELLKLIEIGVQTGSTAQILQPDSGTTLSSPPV
Put plainly: In vitro receptor tyrosine kinase assay (VEGF receptor KDR), DELFIA. The data set is classed as biochemical. The settings on record: recombinant GST-VEGFR2 (806-1356), ATP 0.6 uM, enzyme 5 nM; read-out: VEGFR_IC50_UM. The text has this:
In Vitro Receptor Tyrosine Kinase Assay (VEGF receptor KDR)
This test measures the ability of compounds to inhibit the enzymatic activity of recombinant human VEGF receptor enzymatic activity.
A 1.6-kb cDNA corresponding to the catalytic domain of VEGFR2 (KDR) (Genbank accession number AF035121 amino acid 806 to 1356) is cloned into the Pst I site of the pDEST20 Gateway vector (Invitrogen) for the production of a GST-tagged version of that enzyme. This construct is used to generate recombinant baculovirus using the Bac-to-Bac™ system according to the manufacturer's instructions (Invitrogen).
The GST-VEGFR2806-1356 protein is expressed in Sf9 cells (Spodoptera frugiperda) upon infection with recombinant baculovirus construct. Briefly, Sf9 cells grown in suspension and maintained in serum-free medium (Sf900 II supplemented with gentamycin) at a cell density of about 2×10^6 cells/ml are infected with the above-mentioned viruses at a multiplicity of infection (MOI) of 0.1 during 72 hours at 27° C. with agitation at 120 rpm on a rotary shaker. Infected cells are harvested by centrifugation at 398g for 15 min. Cell pellets are frozen at −80° C. until purification is performed.
All steps described in cell extraction and purification are performed at 4° C. Frozen Sf9 cell pellets infected with the GST-VEGFR2806-1356 recombinant baculovirus are thawed and gently resuspended in Buffer A (PBS pH 7.3 supplemented with 1 μg/ml pepstatin, 2 μg/ml Aprotinin and leupeptin, 50 μg/ml PMSF, 50 μg/ml TLCK and 10 μM E64 and 0.5 mM DTT) using 3 ml of buffer per gram of cells. Suspension is Dounce homogenized and 1% Triton X-100 is added to the homogenate after which it is centrifuged at 22500 g, 30 min., 4 °C. The supernatant (cell extract) is used as starting material for purification of GST-VEGFR2806-1356.
The supernatant is loaded onto a GST-agarose column (Sigma) equilibrated with PBS pH 7.3. Following a four column volume (CV) wash with PBS pH 7.3+1% Triton X-100 and 4 CV wash with buffer B (50mM Tris pH 8.0, 20% glycerol and 100mM NaCl), bound proteins are step eluted with 5 CV of buffer B supplemented with 5 mM DTT and 15 mM glutathion. GST-VEGFR2806-1356 enriched fractions from this chromatography step are pooled based on U.V. trace i.e. fractions with high 0.D.280. Final GST-VEGFR2806-1356 protein preparations concentrations are about 0.7 mg/ml with purity approximating 70%. Purified GST-VEGFR2806-1356 protein stocks are aliquoted and frozen at −80° C. prior to use in enzymatic assay.
Inhibition of VEGFR/KDR is measured in a DELFIATM assay (Perkin Elmer). The substrate poly(Glu4, Tyr) is immobilized onto black high-binding polystyrene 96-well plates. The coated plates are washed and stored at 4° C. During the assay, the enzyme is pre-incubated with inhibitor and Mg-ATP on ice in polypropylene 96-well plates for 4 minutes, and then transferred to the coated plates. The subsequent kinase reaction takes place at 30° C. for 10-30 minutes. ATP concentrations in the assay are 0.6 uM for VEGFR/KDR (2× the Km). Enzyme concentration is 5 nM. After incubation, the kinase reactions are quenched with EDTA and the plates are washed. Phosphorylated product is detected by incubation with Europium-labeled anti-phosphotyrosine MoAb. After washing the plates, bound MoAb is detected by time-resolved fluorescence in a Gemini SpectraMax reader (Molecular Devices). Compounds are evaluated over a range of concentrations, and IC50 values (concentration of compounds giving 50% inhibition of enzymatic activity) are determined.

Converted amounts (≈) assume the structure as drawn.

On to `C[C@H](O)CN1CCN(Cc2ccc(-c3cc4nccc(Oc5ccc(NC(=O)NC6CC6)cc5F)c4s3)nc2)CC1` [Compound 30], for which the concentration in solution in data set [1] (solubility at 24 h) came to 6.46 µM (≈ 3.73 µg/mL). In addition, the IC50 in data set [2] came out at 4 nM.
Consider `CC(C)(O)C(=O)N1CCN(Cc2ccc(-c3cc4nccc(Oc5ccc(NC(=O)NC6CC6)cc5F)c4s3)nc2)CC1` [Compound 35-A, 1-Cyclopropyl-3-(3-fluoro-4-(2-(5-((4-(2-hydroxy-2-methylpropanoyl)piperazin-1-yl)methyl)pyridin-2-yl)thieno[3,2-b]pyridin-7-yloxy)phenyl)urea], for which, in data set [1], the solubility at 24 h was 1.19 µM (≈ 0.72 µg/mL). Besides, in data set [2], the IC50 is 1 nM.
In the case of `COCCOC(=O)N1CCN(Cc2ccc(-c3cc4nccc(Oc5ccc(NC(=O)NC6CC6)cc5F)c4s3)nc2)CC1` [Compound 76, 2-Methoxyethyl 4-((6-(7-(4-(3-cyclopropylureido)-2-fluorophenoxy)thieno[3,2-b]pyridin-2-yl)pyridin-3-yl)methyl)piperazine-1-carboxylate], the IC50 in data set [2] amounted to 8 nM.
Turning to `CCCC(=O)OCC(=O)N1CCN(Cc2ccc(-c3cc4nccc(Oc5ccc(NC(=O)NC6CC6)cc5F)c4s3)nc2)CC1` [Compound 79, 2-(4-((6-(7-(4-(3-Cyclopropylureido)-2-fluorophenoxy)thieno[3,2-b]pyridin-2-yl)pyridin-3-yl)methyl)piperazin-1-yl)-2-oxoethyl butyrate], in data set [2], the IC50 is 19 nM.
For `CC(C)C(=O)OCC(=O)N1CCN(Cc2ccc(-c3cc4nccc(Oc5ccc(NC(=O)NC6CC6)cc5F)c4s3)nc2)CC1` [Compound 80, 2-(4-((6-(7-(4-(3-Cyclopropylureido)-2-fluorophenoxy)thieno[3,2-b]pyridin-2-yl)pyridin-3-yl)methul)piperazin 1-yl)-2-oxoethyl isobutrate], in data set [2], the IC50 worked out at 20 nM.
In the case of `O=C(Nc1ccc(Oc2ccnc3cc(-c4ccc(CN5CCN(C(=O)CS)CC5)cn4)sc23)c(F)c1)NC1CC1` [Compound 114, 1-Cyclopropyl-3-(3-fluoro-4-(2-(5-((4-(2-mercaptoacetyl)piperazin-1-yl)methyl)pyridin-2-yl)thieno[3,2-b]pyridin-7-yloxy)phenyl)urea], the IC50 in data set [2] amounted to 10 nM.
Same read-out and setting: under `C[C@@H]1CN(Cc2ccc(-c3cc4nccc(Oc5ccc(NC(=O)NC6CC6)cc5F)c4s3)nc2)CCN1CCO` [Compound 119, (R)-1-cyclopropyl-3-(3-fluoro-4-(2-(5-((4-(2-hydroxyethyl)-3-methylpiperazin-1-yl)methyl)pyridin-2-yl)thieno[3,2-b]pyridin-7-yloxy)phenyl)urea] stands 8 nM; under `O=C(Nc1ccc(Oc2ccnc3cc(-c4ccc(CN5CCN(C(=O)COC(=O)CCCC[C@H]6SC[C@H]7NC(=O)N[C@H]76)CC5)cn4)sc23)c(F)c1)NC1CC1` [Compound 120, 2-(4-((6-(7-(4-(3-Cyclopropylureido)-2-fluorophenoxy)thieno[3,2-b]pyridin-2-yl)pyridin-3-yl)methyl)piperazin-1-yl)-2-oxoethyl 5-((3aR,4R,6aS)-2-oxohexahydro-1H-thieno[3,4-d]imidazol-4-yl)pentanoate], 21 nM.

These data come from patent US20130096135A1, “Selected Inhibitors of Protein Tyrosine Kinase Activity” (METHYLGENE INC., priority 2011, published 2013).
